US20250136614A1, “2,7-SUBSTITUTED PYRROLO[2,1-F][1,2,4]TRIAZINE COMPOUND HAVING PROTEIN KINASE INHIBITORY ACTIVITY” (Magicbullettherapeutics Co., Ltd., priority 2021, published 2025)

Assays:
Assay type in all cases: cell-based
H358 = assay: Cancer cell growth inhibition (CellTiter-Glo, 72 hours); details: Homo sapiens, NCI-H358, H358 cells, read-out: GI50s (μM) H358
Procedure: (§1) Seeding 3000 cells per well in a 96-well plate. After cell stabilization, treat the cells with compounds diluted in 0.5% DMSO at a ⅓ serial dilution and culture for 72 hours. Following treatment with CellTiter-Glo, luminescence is produced only in the presence of ATP, as luciferase degrades luciferin. Luminescence values were measured using Envision (PerkinElmer). Based on the measured luminescence values, the concentration of compounds causing cell death was calculated to determine the GI50 value.
(§2) The activity values were categorized into three levels • A: IC50<1 μM • B: 1 μM≤IC50<10 μM, • C: IC50≥10 μM

colo205 = assay: as above; details: Homo sapiens, COLO 205, colo205 cells, read-out: GI50s (μM) colo205
Procedure: as §1, §2

MDA-MB-231 = assay: as above; details: Homo sapiens, MDA-MB-231 cells, read-out: GI50s (μM) MDA-MB-231
Procedure: as §1, §2

HCT116 = assay: as above; details: Homo sapiens, HCT-116, HCT116 cells, read-out: GI50s (μM) HCT116
Procedure: as §1, §2

H1975 = assay: as above; details: Homo sapiens, NCI-H1975, H1975 cells, read-out: GI50s (μM) H1975
Procedure: as §1, §2

H23 = assay: as above; details: Homo sapiens, NCI-H23, H23 cells, read-out: GI50s (μM) H23
Procedure: as §1, §2

Ba/F3 parental = assay: Ba/F3 cell growth inhibition (CellTiter-Glo, 72 hours); details: Mus musculus, BaF3, Ba/F3 parental cells, read-out: Ba/F3 GI50s (μM) parental
Procedure: as §1, with “[…]” for “0.5%”
(§3) The activity values were categorized into three levels. • A: IC50<1 μM • B: 1 μM≤IC50<10 μM, • C: IC50≥10 μM

Ba/F3 FLT3 (ITD/D835Y) = biological target: T1, Ba/F3 FLT3 (ITD/D835Y) (Homo sapiens, UniProt P36888, D835Y, cells depend on it, form not given); assay: as above; details: read-out: Ba/F3 GI50s (μM) FLT3 (ITD/D835Y)
T1 sequence (P36888 1-993 D835Y): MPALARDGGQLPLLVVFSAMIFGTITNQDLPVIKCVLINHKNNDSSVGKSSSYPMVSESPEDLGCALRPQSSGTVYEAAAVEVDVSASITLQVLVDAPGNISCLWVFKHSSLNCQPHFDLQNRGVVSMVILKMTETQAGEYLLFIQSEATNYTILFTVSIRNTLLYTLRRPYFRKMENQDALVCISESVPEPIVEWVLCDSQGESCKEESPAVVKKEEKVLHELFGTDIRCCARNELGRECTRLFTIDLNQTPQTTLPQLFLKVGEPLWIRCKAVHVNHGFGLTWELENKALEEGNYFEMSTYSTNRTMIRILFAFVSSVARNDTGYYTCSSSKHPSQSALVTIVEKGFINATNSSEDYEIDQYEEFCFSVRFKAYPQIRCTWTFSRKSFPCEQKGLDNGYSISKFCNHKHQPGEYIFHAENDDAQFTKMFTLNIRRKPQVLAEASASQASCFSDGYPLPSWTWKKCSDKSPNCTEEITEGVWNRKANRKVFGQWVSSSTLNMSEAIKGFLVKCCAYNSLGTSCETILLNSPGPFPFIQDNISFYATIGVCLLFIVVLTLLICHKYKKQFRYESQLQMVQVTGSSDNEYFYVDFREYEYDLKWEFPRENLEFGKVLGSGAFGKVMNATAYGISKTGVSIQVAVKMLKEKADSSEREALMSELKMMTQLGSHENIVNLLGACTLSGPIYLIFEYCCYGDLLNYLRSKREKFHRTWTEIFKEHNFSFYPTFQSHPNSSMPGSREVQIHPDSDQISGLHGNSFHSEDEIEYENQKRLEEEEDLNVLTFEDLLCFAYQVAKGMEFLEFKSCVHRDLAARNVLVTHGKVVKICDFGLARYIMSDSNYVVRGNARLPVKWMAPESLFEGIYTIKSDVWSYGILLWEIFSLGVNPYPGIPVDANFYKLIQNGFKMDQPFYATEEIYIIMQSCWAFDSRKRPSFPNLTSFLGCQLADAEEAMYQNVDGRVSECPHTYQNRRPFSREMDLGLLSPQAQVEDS
Procedure: as §1, with “[…]” for “0.5%”
as §3

Compound | IC50 (H358) [µM] | IC50 (colo205) [µM] | IC50 (MDA-MB-231) [µM] | IC50 (HCT116) [µM] | IC50 (H1975) [µM] | IC50 (H23) [µM] | IC50 (Ba/F3 parental) [µM] | GI50 (Ba/F3 FLT3 (ITD/D835Y)) [µM]
COc1cc2ccc1Nc1ncc3ccc(n3n1)-c1ccc(cc1)OCCOCC(=O)NCCCO2 [Example 34, (Z)-42-methoxy-5,12,15-trioxa-3,9-diaza-2(7,2)-pyrrolo[2,1-f][1,2,4]triazina-1,4(1,4)-dibenzenacyclopentadecaphan-10-one] | ≥ 10 | ≥ 10 | 1 to 10 | ≥ 10 | ≥ 10 | ≥ 10 | ≥ 10 | 1 to 10
O=C1COCCOc2ccc(cc2)-c2ccc3cnc(nn23)Nc2cnn(c2)CCCN1 [Example 35, (2^1Z,4^4E)-4^1H-11,14-dioxa-3,8-diaza-2(7,2)-pyrrolo[2,1-f1][1,2,4]triazina-4(4,1)-pyrazola-1(1,4)-benzenacyclotetradecaphan-9-one] | 1 to 10 | 1 to 10 | ≥ 10 | 1 to 10 | 1 to 10 | 1 to 10 | 1 to 10 | < 1
O=C1CCCCOc2ccc(cc2)-c2ccc3cnc(nn23)Nc2cnn(c2)CCCN1 [Example 36, (2^1Z,4^4E)-4^1H-14-oxa-3,8-diaza-2(7,2)-pyrrolo[2,1-f][1,2,4]triazina-4(4,1)-pyrazola-1(1,4)-benzenacyclotetradecaphan-9-one] | 1 to 10 | 1 to 10 | ≥ 10 | < 1 | 1 to 10 | < 1 | 1 to 10 | < 1
O=C1CCCCCCOc2ccc(cc2)-c2ccc3cnc(nn23)Nc2cnn(c2)CCCN1 [Example 37, (2^1Z,4^4E)-4^1H-16-oxa-3,8-diaza-2(7,2)-pyrrolo[2,1-f1][1,2,4]triazina-4(4,1)-pyrazola-1(1,4)-benzenacyclohexadecaphan-9-one] | ≥ 10 | ≥ 10 | ≥ 10 | 1 to 10 | ≥ 10 | 1 to 10 | ≥ 10 | < 1
O=C1CCCCOc2ccc(cc2)-c2ccc3cnc(nn23)Nc2ccc(cc2)OCCCN1 [Example 38, (Z)-5,15-dioxa-3,9-diaza-2(7,2)-pyrrolo[2,1-f][1,2,4]triazina-1,4(1,4)-dibenzenacyclopentadecaphan-10-one] | 1 to 10 | ≥ 10 | ≥ 10 | 1 to 10 | ≥ 10 | ≥ 10 | ≥ 10 | < 1
CS(=O)(=O)Nc1cccc(-c2ccc3cnc(Nc4ccc(N5CCN(CCCCCOc6cccc7c6C(=O)N(C6CCC(=O)NC6=O)C7=O)CC5)cc4)nn23)c1 (stereo not shown) [Example 39] | ≥ 10 | ≥ 10 | ≥ 10 | ≥ 10 | ≥ 10 | ≥ 10 | ≥ 10 | ≥ 10
CS(=O)(=O)Nc1cccc(-c2ccc3cnc(Nc4ccc(N5CCN(CCCOc6cccc7c6C(=O)N(C6CCC(=O)NC6=O)C7=O)CC5)cc4)nn23)c1 (stereo not shown) [Example 40] | ≥ 10 | ≥ 10 | ≥ 10 | 1 to 10 | ≥ 10 | ≥ 10 | 1 to 10 | < 1
CS(=O)(=O)Nc1cccc(-c2ccc3cnc(Nc4ccc(N5CCN(CCCCCCCOc6cccc7c6C(=O)N(C6CCC(=O)NC6=O)C7=O)CC5)cc4)nn23)c1 (stereo not shown) [Example 41] | ≥ 10 | ≥ 10 | ≥ 10 | ≥ 10 | ≥ 10 | ≥ 10 | 1 to 10 | 1 to 10
CS(=O)(=O)Nc1cccc(-c2ccc3cnc(Nc4ccc(N5CCN(CCCCCCCCCCCOc6cccc7c6C(=O)N(C6CCC(=O)NC6=O)C7=O)CC5)cc4)nn23)c1 (stereo not shown) [Example 42] | ≥ 10 | ≥ 10 | ≥ 10 | ≥ 10 | ≥ 10 | ≥ 10 | 1 to 10 | 1 to 10
Cc1ncsc1-c1ccc(CNC(=O)[C@@H]2C[C@@H](O)CN2C(=O)[C@@H](NC(=O)COCCN2CCN(c3ccc(Nc4ncc5ccc(-c6cccc(NS(C)(=O)=O)c6)n5n4)cc3)CC2)C(C)(C)C)cc1 [Example 83, (2S,4R)-1-((S)-3,3-dimethyl-2-(2-(2-(4-(4-((7-(3-(methanesulfonamido)phenyl)pyrrolo[2,1-f][1,2,4]triazin-2-yl)amino)phenyl)piperazin-1-yl)ethoxy)acetaamino)butanoyl)-4-hydroxy-N-(4-(4-methylthiazol-5-yl)benzyl)pyrrolidin-2-carboxamide] | 1 to 10 | ≥ 10 | ≥ 10 | 1 to 10 | 1 to 10 | 1 to 10 | 1 to 10 | < 1
Cc1ncsc1-c1ccc(CNC(=O)[C@@H]2C[C@@H](O)CN2C(=O)[C@@H](NC(=O)CCOCCOCCN2CCN(c3ccc(Nc4ncc5ccc(-c6cccc(NS(C)(=O)=O)c6)n5n4)cc3)CC2)C(C)(C)C)cc1 [Example 84, (2S,4R)-1-((S)-3,3-dimethyl-2-(3-(2-(2-(4-(4-((7-(3-(methanesulfonamido)phenyl)pyrrolo[2,1-f][1,2,4]triazin-2-yl)amino)phenyl)piperazin-1-yl)ethoxy)ethoxy)propanamido)butanoyl)-4-hydroxy-N-(4-(4-methylthiazol-5-yl)benzyl)pyrrolidin-2-carboxamide] | 1 to 10 | ≥ 10 | ≥ 10 | 1 to 10 | 1 to 10 | 1 to 10 | 1 to 10 | < 1
